# Assays:
# [1] = at 60° C.; cited from earlier work
# [2] = cited from earlier work
# [3] = rat, guinea pig, rabbit, hamster, dog or human; cited from earlier work
# [4] = tested on: head lice collected from Bristol school children; test: Filter paper disk test of malathion, OVIDE lotion and Composition II on resistant head lice (Example 1); format: in vivo, head lice (Pediculus capitis); details: for percentage activity of the lice, 100 being all alive, 0 being all dead: impregnated filter paper disk
# Method: Following approval by the South and West Hospital research ethics committee, three primary schools in south Bristol, U.K. were contacted and arrangements were made with the headmaster/mistress and the school nurse to visit the schools and comb the hair of every child who has parental permission. Head lice were collected from children between 4 years and 11 years of age using plastic louse detector combs.
# Head lice were placed and maintained at about 30° C. and about 70% relative humidity in a portable incubator for up to about two hours before being placed on filter paper test disks in small disposable petri dishes. These conditions of maintenance were the optimum for the lice off the human head. These head lice were then randomly distributed to petri dishes containing the control or impregnated disks and their activity was monitored by inspection over a four hour period. Since the portable incubator was designed to function either from the mains or a 12 volt source (cigarette lighter outlet in a car) the checking of lice activity was undertaken after leaving the school.
# The disks, 5 cm in diameter, are paper, Whatman No. 1 Control paper disks were prepared by dipping papers into isopropanol and allowed to dry. Paper disks were prepared by dipping the paper into the solution of insecticide and allowed it to dry. Solutions used with the paper disks were 0.5% malathion in isopropanol, OVIDE® (malathion 0.5%) lotion, or Composition II disclosed herein. The dried paper disks were then stored overnight in air tight containers before using them the next day.
# In the two subsequent tests, filter paper test disks were also used.
# Values are given as percentage activity of the lice, 100 being all alive, 0 being all dead.
# [5] = tested on: head lice; test: Viability of head lice on filter paper (Example 2); format: in vivo, head lice (Pediculus capitis)
# Method: The viability of head lice was tested on filter paper under conditions as described in Example 1.
compound,measurement,setting,value
"c1ccc2c(c1)CCCC2 [1,2,3,4-tetrahydronaphthalene]",Solubility in Water,[1],< 0.01 % weight
same,symptoms observed with acute exposures in humans,[2],transient liver damage; production of green-gray urine; CNS excitant at low concentration; depressant at high concentration; nephrotoxic (renal system damage); cataracts; liver and kidney damage; and cytotoxic to ascites cells in culture during short-term mutagenicity testing
"CC1=CCC(O)(C(C)C)CC1 (stereo not drawn) [1-terpinen-4-ol, 1-methyl-4-isopropyl-delta-cyclohexene-4-ol]",symptoms observed with acute exposures in humans,[2],CNS depression; cyanosis in extremities; increased urine volume; anti-microbial activity (α-terpineol does not have this activity); and greatly decreased allergic contact eczema compared to dipentene
"C=C(C)C1CC=C(C)CC1 (stereo not drawn) [Dipentene, 1-methyl-4-(1-methylethenyl)cyclohexene]",metabolic conversion to α-terpineol or 1-terpinen-4-ol,[3],not metabolically converted to either α-terpineol or to 1-terpinen-4-ol
same,symptoms observed with acute exposures in humans,[2],increased bile flow; hypothermia; increased cytochrome P450 content; hematuria (blood in urine); albuminuria (serum globulin in urine); tachycardia (rapid heart rate); increased allergic contact eczema; and no CNS involvement
"CCOC(=O)CC(SP(=S)(OC)OC)C(=O)OCC (stereo not drawn) [Malathion, [(dimethoxyphosphinothioyl)thio]butanedioic acid diethyl ester]","percentage activity of the lice, 100 being all alive, 0 being all dead",[4]; Time 0 mins,100%
same,"percentage activity of the lice, 100 being all alive, 0 being all dead",[4]; Time 1 mins,100%
same,"percentage activity of the lice, 100 being all alive, 0 being all dead",[4]; Time 5 mins,100%
same,"percentage activity of the lice, 100 being all alive, 0 being all dead",[4]; Time 10 mins,100%
same,"percentage activity of the lice, 100 being all alive, 0 being all dead",[4]; Time 20 mins,100%
same,"percentage activity of the lice, 100 being all alive, 0 being all dead",[4]; Time 30 mins,100%
same,"percentage activity of the lice, 100 being all alive, 0 being all dead",[4]; Time 60 mins,100%
same,"percentage activity of the lice, 100 being all alive, 0 being all dead",[4]; Time 90 mins,90%
same,"percentage activity of the lice, 100 being all alive, 0 being all dead",[4]; Time 120 mins,80%
same,"percentage activity of the lice, 100 being all alive, 0 being all dead",[4]; Time 180 mins,60%
same,"percentage activity of the lice, 100 being all alive, 0 being all dead",[4]; Time 240 mins,50%
same,lice killed,[4]; after about 4 hours,approximately 50%
same,Percent of Lice Still Alive,[5]; After 1 minute,100%
same,Percent of Lice Still Alive,[5]; After 5 minutes,100%
same,Percent of Lice Still Alive,[5]; After 10 minutes,100%
same,Percent of Lice Still Alive,[5]; After 20 minutes,100%
same,Percent of Lice Still Alive,[5]; After 30 minutes,100%
same,Percent of Lice Still Alive,[5]; After 60 minutes,100%
same,Percent of Lice Still Alive,[5]; After Minutes: None,100%

# Reference: patent US20030040504A1, “Ectoparasiticidal compositions and methods of their use” (priority 2001, published 2003)
